The values that follow come from patent US12589090B2, “Compounds and methods for the treatment of degenerative disorders” (Aquilus Pharmaceuticals, Inc., priority 2019, dated 2026).

Data set [1] in a line: In-vivo oral rat pharmacokinetics (Example 15). Particulars: male Sprague-Dawley rats, dose level 10 mg/kg, 0.5% MC, plasma, mean. The protocol: Understanding the pharmacokinetics in species typically employed in preclinical animal testing is an essential component of drug discovery. […] Procedure: Six (6) male Sprague-Dawley rats were used. Fasting was conducted at least 16 hours prior to dose administration. Food was returned at approximately 4 hours post dose. The animals were placed into 2 groups of 3 animals per group. The oral (PO) formulation for Groups 1 & 2 were prepared on the day of dosing at a target concentration of 0.5 mg/mL in 0.5% Methylcellulose (400 cps) to produce a white, homogeneous suspension. Dosing was performed as outlined in Table 1:
Whole blood samples (0.250 mL; K2EDTA anticoagulant) were collected from each animal through a jugular vein catheter. Whole blood samples were collected from all animals pre-dose, and at 0.25, 0.5, 1, 2, 4, 8, 16, and 24 hours after dose administration. All blood samples were immediately placed on ice until processing. Whole blood samples were centrifuged at 2200×g for 10 minutes in a refrigerated centrifuge (5±3° C.) to isolate plasma. The plasma samples were transferred to individual polypropylene vials and immediately placed on dry ice before storage at nominally −20±5° C. The plasma samples sometime later were then thawed and extracted and analyzed by high pressure liquid chromatography (HPLC) coupled to Mass Spectrometry (MS) (Table 2). Pharmacokinetic parameters (Table 3) were estimated using WinNonlin® pharmacokinetic software (Version No. 5.2.1) using a non-compartmental approach consistent with the PO route of administration.

The subject of data set [2] is SNL rats. The data set can be described thus: Spinal nerve ligation (SNL) rat model, mechanical allodynia by von Frey paw withdrawal threshold (Example 17). The format is in vivo, Sprague Dawley rats. Particulars: 160 mg/Kg PO once per day for 5 days, 60 min after dosing, vs. vehicle control, p<0.05. The method, then: A total of 90 male Sprague Dawley rats (200-225 g) from Envigo (Indianapolis, IN) were used in the study. The 90 rats were assembled into four groups that would be orally dosed (PO) with vehicle, Gabapentin and Compound 118 as follows: • Group 1=Sham+Vehicle, n=20 rats • Group 2=SNL+Vehicle, n=40 rats • Group 3=SNL+Compound 118 (160 mg/Kg), n=20 rats • Group 4=SNL+Gabapentin (100 mg/Kg), n=10 rats
Under general anesthesia with continuous inhalation of isoflurane, surgery was performed with aseptic procedures. The skin at the area of the lower lumber and sacral level of the rat was shaved and disinfected with betadine and alcohol. A left longitudinal incision at the level next to the vertebral column was made and the left paraspinal muscles were separated. The transverse process of L6 was removed and nearby connective tissue cleaned to expose L5 and L6 spinal nerves. After the nerves were isolated and clearly visualized, 4-0 silk threads were used to ligate the left L5. The muscles were sutured with 4-0 silk threads and the wound closed by staples. […] Each rat was monitored until awake and moving freely around the recovery chamber. […]
The mechanical allodynia of the rodents were measured by applying von Frey (VF) filaments (Stoelting, Wood Dale, IL) of ascending bending force to the plantar surface of the hind paws, ipsilateral and contralateral to the surgical manipulation. […]

Data set [3] in a line: In-vivo oral PK of Compound 118 in SOD-1 mice (Example 19). Set-up: species or system SOD-1-G93A (SOD-1) mice. Particulars: for AUC / Cmax: SOD-1-G93A, mouse, po, PO 200 mg/Kg for 3 days. The protocol:
The present example orally doses compound 118 once per day (SID) or twice per day (BID) for three days to a series of mice that have overexpression for the protein copper-zinc superoxide dismutase 1. Compound 118 was orally dosed in SOD-1-G93A (SOD-1) mice in a PK study. In summary, SOD-1 mice (At P100±4 days of age) received twice daily (BID) or once daily (SID) oral administration of 200 mg/Kg Compound 118 (as an aqueous suspension in 0.5% methylcellulose) for 3 days (Table 6). Plasma was collected from the tail vein at baseline (pre-dose), 15 min, 30 min, 1 h, 2 h, 4 h post-last PO dose on the third day. One animal from each group was euthanized 2 hrs. post dose on the third day of dosing where plasma, spinal cord, and brain tissue was collected post-mortem. The remaining 3 animals per group was euthanized six hours after the final dose on the third day, plasma, spinal cord, and brain tissue was then collected post-mortem. […] There was a significant difference in clearance of Compound 118 within plasma between male and female SOD-1 mice. […] Given the sex difference in clearance, it will be necessary to increase the amount that male SOD-1 mice are dosed compared to females SOD-1 mice in order maintain parity in exposure between the sexes.

A short description of data set [4]: Dissociation constant. The format is physicochemical.
Data set [5] is described as follows: Solubility testing (Example 27). In kind it is physicochemical.
Setting [6] is: female, plasma, 200 mg/kg, Female SOD-1 mice, BID.
Setting [7] is: female, plasma, 200 mg/kg, Female SOD-1 mice, SID.
Setting [8] is: male, plasma, 200 mg/kg, Male SOD-1 mice, BID.
[9] abbreviates: male, plasma, 200 mg/kg, Male SOD-1 mice, SID.

“Also recorded” adds a separate entry of the source.

In the case of `[2H]C([2H])([2H])c1ccc(C#Cc2ccc(S(=O)(=O)N[C@H](Cc3c[nH]c4ccccc34)C(=O)O)s2)cc1` [Compound 118, (R)-3-(1H-Indol-3-yl)-2-[5-(4-trideuteromethyl-phenylethynyl)-thiophene-2-sulfonylamino]-propionic acid-(D3, 98%)], the AUC(0-inf) in data set [1] amounted to 7.73 µg·h/mL. The same molecule showed an AUC(0-t) in data set [1] of 7.68 µg·h/mL. Also, the Cmax in data set [1] came out at 2740 ng/mL; in data set [3] (setting [6]), 111000 ng/mL; in data set [3] (setting [7]) it was 96000 ng/mL; in data set [3] (setting [8]), 39200 ng/mL; in data set [3] (setting [9]), 44500 ng/mL. This molecule had a half-life in data set [1] of 1.47 h. The “mechanical allodynia (ipsilateral paw withdrawal threshold, von Frey)” value in data set [2] is “reduce mechanical allodynia in a statistical manner; also recorded: statistically significant decrease in mechanical allodynia”. Moreover, the “AUC in Female SOD-1 mice relative to male SOD-1 mice” value in data set [3] (200 mg/Kg PO, plasma) is on record as 3-4 times. The “concentration in the spinal cord” value in data set [3] (SOD-1 mice, 200 mg/Kg PO, T=2 hour from last dose on third day) is on record as 200-400 ng of AQU-118/gram spinal tissue. Moreover, the “oral bioavailability in plasma” value is on record as “good oral bioavailability” in data set [3] (SOD-1 mice, 200 mg/Kg PO, 200 mg/kg) and “good bioavailability in plasma” in data set [3] (SOD-1 mice, 200 mg/Kg PO, listed as AQU-118, 200 mg/kg). Further, the area under the curve (AUC) came to 394 µg·h/mL in data set [3] (setting [6]), 342 µg·h/mL in data set [3] (setting [7]), 115 µg·h/mL in data set [3] (setting [8]) and 121 µg·h/mL in data set [3] (setting [9]). Further, in data set [4], the dissociation constant result is listed as “around 3.4”. Moreover, the “solubility in DMSO, acetone and methanol” value in data set [5] was “soluble”. For the same molecule, in data set [5] (as the free acid), the solubility in water entry is given as “poorly soluble”.
